From article PMC7038073, “Substituted Piperazines as Novel Potential Radioprotective Agents” (Molecules, 2020)
“And” between values parts separate entries of the source, which are not always exact repeats. Equal values may be shown once.

Assays:
[1] = Safe use evaluation in vivo (MTD, symptoms, blood biochemistry, histopathology); set-up: key to piloerection / ataxia / prostration / tremor / excitation / saber-like tail / stooping / hyper/hypoventilation / drop of eyelids / lacrimation / convulsion: + (mild); ++ (moderate); +++ (severe); conditions: both sexes, mouse, in vivo, ip; BALB/c mice, i.p., two males and two females per group; read-out: MTD (maximum tolerated dose)
From the text: (§1) Mild to moderate signs of intoxication could be observed once the MTD (maximum tolerated dose) was reached. In vivo, MTD is described as the highest dose of a given compound that can be administered before showing signs of toxicity (based on the same dose regimen or series) and whose excess would be expected to be fatal, yielding unreliable results. Therefore, a staged approach (including core and intermediate dose levels) has become a suitable strategy in this regard.
(§2) The symptoms described in Tables S1 (in Supplementary Materials) and S2 (in Supplementary Materials) diminished spontaneously within 2 h. After observing these symptoms, MTD thresholds were set at 100, 200, 100, 200, 2000, and 650 mg/kg for compounds 4, 5, 6, 7, 8, and 10, respectively. Animals receiving MTD were further examined by necropsy 48 h after administration. Plasma (reflecting biochemical changes in blood), intestine with mesentery (site of administration), and liver and kidney (elimination organs) were collected to evaluate the toxic potential of the tested compounds. For evaluation of the impact of the compounds on organ function, we performed blood biochemistry test 48 h after administration. The test focused on seven important indicators: glucose and amylase for normal function of pancreas, alanine aminotransferase (ALT), aspartate aminotransferase (AST), and alkaline phosphatase (ALP) for the normal function of liver, and urea and creatinine for the normal function of kidneys. […] According to Thoolen et al., focal necrosis can be occasionally seen in untreated rodents and therefore is not pathognomonic of hepatotoxicity, which is consistent with our findings.
(§3) Both male and female BALB/c mice (Velaz s r.o., Prague, Czech Republic) with an average weight of 21 ± 0.8 g and 21 ± 0.8 g, respectively, were selected for the safe use evaluation in vivo. The mice were housed in environmentally controlled breeding units (Faculty of Military Health Sciences vivarium; temperature 21 ± 1 °C, 12/12 h light/dark cycle) with access to food (Cerea corp., Pardubice, Czech Republic) and water ad libitum. The acclimatization period of the mice was at least 10 days before each experiment. All experimental procedures and protocols were reviewed and approved by the Ethics Committee of the Faculty of Military Health Sciences in Hradec Kralove, University of Defence in Brno. Compounds 2, 3, 4, 5, 6, 7, 8, 9, and 10 were dissolved in physiological saline solution (B. Braun Melsungen AG, Melsungen, Germany) and injected intraperitoneally (i.p.) into the corresponding mouse groups, which were composed of two males and two females. Several doses were administered to determine the maximum tolerated dose (MTD), which was assessed by close observation for signs of toxicity within the first two hours after administration of the compounds, and then regularly over the following 48 h. The observed symptoms were registered according to the laboratory Animal Science Association UK guidelines (for a detailed description, see [36]. After 48 h, the surviving animals were euthanized with CO2 and evaluated by basic macroscopic necropsy. Venous blood was collected into heparinized tubes (Scanlab Systems, Prague, Czech Republic) and the plasma was separated in a U-320R centrifuge (Boeco, Hamburg, Germany) to further evaluate the toxic potential of the tested compounds. The concentrations of glucose, urea, and creatinine and the levels of alanine aminotransferase (ALT), aspartate aminotransferase (AST), alkaline phosphatase (ALP), and amylase were evaluated in a qualified biochemical laboratory of the University Hospital Hradec Kralove (Hradec Kralove, Czech Republic). Additionally, intestine, liver, and kidney samples were collected for histopathologic examination. […]

BALB/c mice = test: as above; set-up: key to piloerection / ataxia / prostration / tremor / excitation / saber-like tail / stooping / hyper/hypoventilation / drop of eyelids / lacrimation / convulsion: + (mild); ++ (moderate); +++ (severe); conditions: for ALP / ALT / AST / Amylase / Creatinine / Glucose / Urea: plasma 48 h after MTD i.p.
From the text: as §1, §2, §3

[2] = WST-1 cytotoxicity test, HT-29; type: cell-based; conditions: human, HT-29 cells, 48 h, WST-1, mean ± SD of three experiments, read-out: relative viability (%) compared to untreated control; for viability at 48 h, 10 µM: HT-29, 10 µM; for viability at 48 h, 100 µM: HT-29, 100 µM
Experimental: (§4) In this study, the cytotoxic effects of nine new compounds (2, 3, 4, 5, 6, 7, 8, 9, 10) were tested on 10 human cell lines (nine cancer and one non-cancer cell line). The cell lines were treated with each compound at concentrations of 10 µM and 100 µM for 48 h. The proliferation capacity of the treated cells was determined by WST-1 test and compared against the proliferation rate of the untreated control cells (100%).
(§5) The cell lines Jurkat, MOLT-4, A2780, A549, HT-29, PANC-1, HeLa, MCF-7, SAOS-2, and MRC-5 (all purchased from Sigma Aldrich, Czech Republic) were included in this study. All cell lines were maintained according to the provider’s guidelines, and plated and treated in 96-well plates (500 to 30 × 10^3 cells per well). The tested compounds 2, 3, 4, 5, 6, 7, 8, 9, and 10 were dissolved in 0.1% DMSO and kept in 10 mM stock solutions. Before use, the stock solution was diluted in culture media at ratios of 1:100 and 1:1000. The studied cell lines were treated with the compounds 2, 3, 4, 5, 6, 7, 8, 9, and 10 at concentrations of 10 and 100 µM for 48 h. Control cells were tested in culture media with and without DMSO (0.1%). The cells were also treated with 1 µM doxorubicin as a cytotoxicity control.
(§6) The WST-1 (2-(4-iodophenyl)-3-(4-nitrophenyl)-5-(2,4-disulfophenyl)-2H-tetrazolium, monosodium salt) test (Roche, Mannheim, Germany) was used according to the manufacturer’s protocol to determine cell viability in all 10 cell lines 48 h after treatment with the tested compounds. The cells were analyzed in a Tecan Infinite M200 spectrometer (Tecan Group, Männedorf, Switzerland) at 440 nm.

[3] = WST-1 cytotoxicity test, HeLa; type: cell-based; conditions: human, HeLa cells, 48 h, WST-1, mean ± SD of three experiments, read-out: relative viability (%) compared to untreated control
Experimental: as §4, §5, §6

[4] = female BALB/c mice, animals 1 and 2
[5] = female mice, at MTD i.p., animals 1 and 2
[6] = male BALB/c mice, animals 1 and 2
[7] = male mice, at MTD i.p., animals 1 and 2

| SMILES | MTD at 48 h [1] [mg/kg] | ALT (BALB/c mice; [4]) | AST (BALB/c mice; [4]) | Amylase (BALB/c mice; [4]) | Glucose (BALB/c mice; [4]) | Urea (BALB/c mice; [4]) | drop of eyelids (BALB/c mice; [5]) | ALP (BALB/c mice; [6]) | ALT (BALB/c mice; [6]) | AST (BALB/c mice; [6]) | Amylase (BALB/c mice; [6]) | Creatinine (BALB/c mice; [6]) | Glucose (BALB/c mice; [6]) | Urea (BALB/c mice; [6]) | hyper/hypoventilation (BALB/c mice; [7]) | prostration (BALB/c mice; [7]) | viability at 48 h, 10 µM [2] [%] | viability at 48 h, 100 µM [2] [%] | viability at 48 h, 10 µM [3] [%] | viability at 48 h, 100 µM [3] [%] | also measured |
| --- | --- | --- | --- | --- | --- | --- | --- | --- | --- | --- | --- | --- | --- | --- | --- | --- | --- | --- | --- | --- | --- |
| Cc1cc(OCC(O)CN2CCN(CCO)CC2)ccc1Cl.Cl.Cl (stereo not drawn) [Compound 4, 1-(4-chloro-3-methylphenoxy)-3-(4-(2-hydroxyethyl)piperazin-1-yl)propan-2-ol dihydrochloride] | 100 | 28 U/L | 93 U/L and 61 U/L | 2632 U/L and 2216 U/L | 237 mg/dL and 228 mg/dL | 65 mg/dL and 38 mg/dL | + | 77 U/L and 63 U/L | 41 U/L and 43 U/L | 124 U/L and 121 U/L | 1905 U/L and 2464 U/L | 79 µg/dL and 45 µg/dL | 226 mg/dL and 227 mg/dL | 39 mg/dL and 53 mg/dL | + | + | 100 ± 2 | 83 ± 4 | 106 ± 2 | 137 ± 5 | histopathological change: focal necrosis (BALB/c mice; at MTD i.p., necropsy 48 h after administration, one animal each): one small focus; ALP (BALB/c mice; [4]): 83 U/L and 76 U/L; Creatinine (BALB/c mice; [4]): 78 µg/dL and 79 µg/dL; prostration (BALB/c mice; [5]): +; weight at 24 h (%) (BALB/c mice; [5]): -5.7% and -4.1%; weight at 48 h (%) (BALB/c mice; [5]): -7.3% and -7.9%; weight at 24 h (%) (BALB/c mice; [7]): -2.6% and -3.0%; weight at 48 h (%) (BALB/c mice; [7]): -4.6% and -3.7% |
| Cl.Cl.Cl.OCCN1CCN(CCCNc2ccccc2)CC1 [Compound 5, 2-(4-(3-(phenylamino)propyl)piperazin-1-yl)ethanol trihydrochloride] | 200 | 29 U/L and 22 U/L | 65 U/L and 44 U/L | 2531 U/L and 2489 U/L | 187 mg/dL and 192 mg/dL | 65 mg/dL and 58 mg/dL | + | 37 U/L and 38 U/L | 28 U/L and 29 U/L | 58 U/L and 59 U/L | 1757 U/L and 2008 U/L | 23 µg/dL and 21 µg/dL | 185 mg/dL and 175 mg/dL | 31 mg/dL and 33 mg/dL | ++ | ++ | 91 ± 2 | 109 ± 2 | 100 ± 4 | 116 ± 10 | ALP (BALB/c mice; [4]): 88 U/L and 80 U/L; ataxia (BALB/c mice; [5]): +; hyper/hypoventilation (BALB/c mice; [5]): ++; tremor (BALB/c mice; [5]): +; ataxia (BALB/c mice; [7]): ++ and +; drop of eyelids (BALB/c mice; [7]): +; lacrimation (BALB/c mice; [7]): +; saber-like tail (BALB/c mice; [7]): +; tremor (BALB/c mice; [7]): ++ |
| Cl.Cl.Cl.OCCN1CCN(CCCNc2cccc3ccccc23)CC1 [Compound 6, 2-(4-(3-(naphthalen-1-ylamino)propyl)piperazin-1-yl)ethanol trihydrochloride] | 100 | 29 U/L and 27 U/L | 53 U/L and 50 U/L | 2922 U/L and 2835 U/L | 199 mg/dL and 212 mg/dL | 65 mg/dL and 55 mg/dL | + | 38 U/L and 36 U/L | 28 U/L and 25 U/L | 64 U/L and 62 U/L | 2124 U/L and 2086 U/L | 45 µg/dL and 23 µg/dL | 130 mg/dL and 177 mg/dL | 42 mg/dL and 35 mg/dL | ++ | + | 86 ± 4 | 97 ± 4 | 108 ± 6 | 104 ± 7 | ALP (BALB/c mice; [4]): 86 U/L and 95 U/L; Creatinine (BALB/c mice; [4]): 22 µg/dL and 34 µg/dL; ataxia (BALB/c mice; [5]): ++; hyper/hypoventilation (BALB/c mice; [5]): ++; prostration (BALB/c mice; [5]): +; stooping (BALB/c mice; [5]): ++; ataxia (BALB/c mice; [7]): +; drop of eyelids (BALB/c mice; [7]): +; piloerection (BALB/c mice; [7]): +; stooping (BALB/c mice; [7]): ++; tremor (BALB/c mice; [7]): +; weight at 48 h (%) (BALB/c mice; [7]): -2.3% and -3.0% |
| COc1ccc(NCCCN2CCN(CCO)CC2)cc1.Cl.Cl.Cl [Compound 7, 2-(4-(3-((4-methoxyphenyl)amino)propyl)piperazin-1-yl)ethanol trihydrochloride] | 200 | 22 U/L and 33 U/L | 52 U/L and 71 U/L | 2501 U/L and 1496 U/L | 241 mg/dL and 178 mg/dL | 40 mg/dL | + | 78 U/L and 55 U/L | 19 U/L and 29 U/L | 48 U/L and 66 U/L | 2272 U/L and 1858 U/L | 23 µg/dL and 34 µg/dL | 244 mg/dL and 194 mg/dL | 35 mg/dL and 38 mg/dL | ++ | ++ | 96 ± 3 | 118 ± 2 | 96 ± 8 | 132 ± 3 | hyper/hypoventilation (BALB/c mice; [5]): ++; prostration (BALB/c mice; [5]): +; tremor (BALB/c mice; [5]): ++; drop of eyelids (BALB/c mice; [7]): +; tremor (BALB/c mice; [7]): ++; weight at 24 h (%) (BALB/c mice; [7]): -0.3% and -1.5%; weight at 48 h (%) (BALB/c mice; [7]): 0.0% and -3.7% |
| Cl.Cl.OC(CNc1ccccc1)CNc1ccccc1 [Compound 9, 1,3-bis(phenylamino)propan-2-ol dihydrochloride] | – | – | – | – | – | – | – | – | – | – | – | – | – | – | – | – | 102 ± 5 | 148 ± 2 | 99 ± 9 | 90 ± 14 | – |
